Laboratory results taken from article PMC5487681, “Identification of Antifungal H^+-ATPase Inhibitors with Effect on Plasma Membrane Potential” (Antimicrobial Agents and Chemotherapy, 2017).
Values after ≈ are worked out from the molar mass of the structure shown. Read-outs that look alike come from different tables or passages of the source.

Key:
[1] = target: S. cerevisiae Pma1 (Saccharomyces cerevisiae, UniProt P05030); experiment: ATP hydrolysis assay, S. cerevisiae plasma membranes containing Pma1; type: biochemical; parameters: containing the full-length cDNA of the S. cerevisiae plasma membrane H^+-ATPase isoform PMA1; made in house; host or cells: S. cerevisiae RS72 (PMA1 cDNA under PMA1 promoter); also wild-type S. cerevisiae ATCC 9763
Experimental: Plasma membranes containing Pma1 were isolated from S. cerevisiae RS72 cells containing the full-length cDNA of the S. cerevisiae plasma membrane H^+-ATPase isoform PMA1 under the control of the PMA1 promoter, as described in reference.
A 100-ml overnight culture in YPD medium [10 g/liter yeast extract (BD, Sparks, MD), 20 g/liter Bacto peptone (BD), 20 g/liter D-(+)-glucose] was transferred to 1 liter YPD medium and grown at room temperature and 150 rpm for 18 h for wild-type S. cerevisiae (ATCC 9763) and 7 h for C. albicans. The cells were harvested and washed in Milli-Q H2O by centrifugation at 3,360 × g. The cells were glucose activated by the addition of 10% D-(+)-glucose for 10 min while shaking. The cells were then centrifuged at 3,360 × g for 3 min and frozen. Cells (60 to 80 g, wet weight) were then disrupted by bead beating (BioSpec, Bartlesville, OK) and processed as described in reference to prepare the plasma membranes. […] All batches were validated by ATPase hydrolysis activity, pH optimum, and orthovanadate sensitivity.
The protein activity levels were determined by measuring the amount of free phosphate produced from the ATP hydrolysis reaction. The assay was performed as described in reference. Each well contained ATPase enzyme, 2 μl of inhibitor (usually in the range of 333 to 0.01 μM) dissolved in dimethyl sulfoxide (DMSO) (Duchefa Biochemie, Haarlem, The Netherlands), and an assay buffer dependent on the enzyme for a final volume of 60 μl. Possible compound precipitation in the assay buffer was monitored using a Nephelostar plate reader measuring turbidity, and the information was taken into account in the IC50 determination. Pma1 assay buffer consisted of 20 mM 3-(N-morpholino)propanesulfonic acid (MOPS)–NaOH, pH 6.5 or 7.0, 8 mM MgSO4, 50 mM KNO3 (a vacuolar ATPase inhibitor), 25 mM sodium azide (a mitochondrial ATPase inhibitor), and 250 μM sodium molybdate (an acid phosphatase inhibitor). SERCA buffer consisted of 9 mM MOPS-NaOH, pH 7, 2.7 mM MgCl2, 90 μM CaCl2, and 72 mM KCl. Na^+,K^+-ATPase buffer consisted of 30 mM MOPS-NaOH, pH 7, 40 mM NaCl, 4 mM MgCl2, and 20 mM KCl. The concentration of protein was adjusted to obtain a signal of the optical density at 860 nm (OD860) of between 0.5 and 1.0 in the untreated samples (for all Pma1 batches, ∼1 to 2 μg/well; for SERCA and Na^+,K^+-ATPase, ∼0.1 to 0.2 μg/well). […]

[2] = tested on: Aspergillus fumigatus ATCC 13073; experiment: microbe, parasite or virus in culture; settings: for MIC: Aspergillus fumigatus
Experimental: (§1) The following fungal isolates were used: Saccharomyces cerevisiae ATCC 9763, Candida albicans SC5314, Candida parapsilosis ATCC 22019, Candida tropicalis Ct016, Candida glabrata ATCC 90030, Aspergillus fumigatus ATCC 13073, and Aspergillus flavus ATCC MYA-1005. Frozen stocks of yeast isolates in glycerol (final concentration, 20%) were prepared by growing the cells to log phase in YPD medium at 30°C and 150 rpm. Frozen stocks of mold spores were prepared by harvesting spores from 7-day-old potato glucose agar plates in phosphate-buffered saline, 0.1% Tween 80 and aliquoting these spores in the presence of glycerol (final concentration, 20%). The cells were stored at −80°C. The cells or spores were thawed and diluted to a final concentration of 0.5 × 10^5 to 2.5 × 10^5 CFU/ml in sterile Milli-Q H2O. […] The plate was incubated for 20 to 24 h at 34°C (72 h for molds), and the OD490 was measured on a Victor X5 (PerkinElmer) plate reader. Mold growth assay plates were also visually inspected. The MIC was defined as the lowest concentration inhibiting the visual growth of the microorganism.

[3] = tested on: Candida glabrata ATCC 90030; experiment: microbe, parasite or virus in culture; settings: for MIC: Nakaseomyces glabratus
Experimental: as §1

[4] = tested on: Candida tropicalis Ct016; experiment: microbe, parasite or virus in culture; settings: for MIC: Candida tropicalis
Experimental: as §1

[5] = target: Ca^2+-ATPase (SERCA1a) (Oryctolagus cuniculus, UniProt P04191); experiment: ATP hydrolysis assay, SERCA; type: biochemical, rabbit
Experimental: Rabbit sarcoplasmic reticulum membranes containing sarcoplasmic endoplasmic reticulum Ca^2+-ATPase (SERCA) were kindly provided by Claus E. Olesen and Jesper V. Møller, Aarhus University, and prepared as described in reference. Porcine kidney Na^+,K^+-ATPase was kindly provided by Natalya Fedosova, Aarhus University, and prepared as described in reference.
The protein activity levels were determined by measuring the amount of free phosphate produced from the ATP hydrolysis reaction. The assay was performed as described in reference. Each well contained ATPase enzyme, 2 μl of inhibitor (usually in the range of 333 to 0.01 μM) dissolved in dimethyl sulfoxide (DMSO) (Duchefa Biochemie, Haarlem, The Netherlands), and an assay buffer dependent on the enzyme for a final volume of 60 μl. Possible compound precipitation in the assay buffer was monitored using a Nephelostar plate reader measuring turbidity, and the information was taken into account in the IC50 determination. Pma1 assay buffer consisted of 20 mM 3-(N-morpholino)propanesulfonic acid (MOPS)–NaOH, pH 6.5 or 7.0, 8 mM MgSO4, 50 mM KNO3 (a vacuolar ATPase inhibitor), 25 mM sodium azide (a mitochondrial ATPase inhibitor), and 250 μM sodium molybdate (an acid phosphatase inhibitor). SERCA buffer consisted of 9 mM MOPS-NaOH, pH 7, 2.7 mM MgCl2, 90 μM CaCl2, and 72 mM KCl. Na^+,K^+-ATPase buffer consisted of 30 mM MOPS-NaOH, pH 7, 40 mM NaCl, 4 mM MgCl2, and 20 mM KCl. The concentration of protein was adjusted to obtain a signal of the optical density at 860 nm (OD860) of between 0.5 and 1.0 in the untreated samples (for all Pma1 batches, ∼1 to 2 μg/well; for SERCA and Na^+,K^+-ATPase, ∼0.1 to 0.2 μg/well).

[6] = Table 1, ATP hydrolysis at pH 7, 2 to 3 experiments, read-out: IC50 Pma1
[7] = ATCC13073, 72 h, pH 7, read-out: MIC A. fumigatus
[8] = ATCC90030, pH 7, read-out: MIC C. glabrata
[9] = CT016, pH 7, read-out: MIC C. tropicalis
[10] = Table 2, pH 7, n = 2, read-out: IC50 for ATP hydrolysis, S. cerevisiae Pma1
[11] = ATCC13073, read-out: MIC for growth inhibition, A. fumigatus
[12] = ATCC90030, read-out: MIC for growth inhibition, C. glabrata
[13] = CT016, read-out: MIC for growth inhibition, C. tropicalis
[14] = Table 2, pH 7, n = 2, rabbit SERCA1a, read-out: IC50 for ATP hydrolysis, SERCA

Sequence of Ca^2+-ATPase (SERCA1a) (P04191 1-994 isoform P04191-2): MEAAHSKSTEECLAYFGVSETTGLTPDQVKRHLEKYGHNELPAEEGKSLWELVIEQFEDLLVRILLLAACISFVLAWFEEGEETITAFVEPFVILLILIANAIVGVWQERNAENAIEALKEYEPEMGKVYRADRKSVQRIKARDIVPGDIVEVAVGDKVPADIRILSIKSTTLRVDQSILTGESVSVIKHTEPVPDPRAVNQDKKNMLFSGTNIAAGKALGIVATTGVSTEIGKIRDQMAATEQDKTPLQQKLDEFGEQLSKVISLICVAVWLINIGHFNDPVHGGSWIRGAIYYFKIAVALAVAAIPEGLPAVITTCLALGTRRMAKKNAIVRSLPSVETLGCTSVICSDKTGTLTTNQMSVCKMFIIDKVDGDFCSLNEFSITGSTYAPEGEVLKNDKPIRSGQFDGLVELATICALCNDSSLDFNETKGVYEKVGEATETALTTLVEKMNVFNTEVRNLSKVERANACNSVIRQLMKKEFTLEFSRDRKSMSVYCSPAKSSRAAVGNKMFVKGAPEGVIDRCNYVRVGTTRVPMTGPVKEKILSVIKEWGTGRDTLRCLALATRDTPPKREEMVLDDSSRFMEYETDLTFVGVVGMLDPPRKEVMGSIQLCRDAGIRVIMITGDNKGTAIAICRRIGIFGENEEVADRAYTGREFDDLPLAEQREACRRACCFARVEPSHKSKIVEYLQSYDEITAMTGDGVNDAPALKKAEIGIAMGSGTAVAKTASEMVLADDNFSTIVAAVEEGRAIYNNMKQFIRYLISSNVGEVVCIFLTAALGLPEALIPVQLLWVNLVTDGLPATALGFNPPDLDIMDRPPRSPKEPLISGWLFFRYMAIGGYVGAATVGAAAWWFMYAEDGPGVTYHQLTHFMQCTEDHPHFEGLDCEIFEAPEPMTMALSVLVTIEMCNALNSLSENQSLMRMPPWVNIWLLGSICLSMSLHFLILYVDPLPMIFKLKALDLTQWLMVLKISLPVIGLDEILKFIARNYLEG
Sequence of S. cerevisiae Pma1 (P05030 whole entry, canonical isoform): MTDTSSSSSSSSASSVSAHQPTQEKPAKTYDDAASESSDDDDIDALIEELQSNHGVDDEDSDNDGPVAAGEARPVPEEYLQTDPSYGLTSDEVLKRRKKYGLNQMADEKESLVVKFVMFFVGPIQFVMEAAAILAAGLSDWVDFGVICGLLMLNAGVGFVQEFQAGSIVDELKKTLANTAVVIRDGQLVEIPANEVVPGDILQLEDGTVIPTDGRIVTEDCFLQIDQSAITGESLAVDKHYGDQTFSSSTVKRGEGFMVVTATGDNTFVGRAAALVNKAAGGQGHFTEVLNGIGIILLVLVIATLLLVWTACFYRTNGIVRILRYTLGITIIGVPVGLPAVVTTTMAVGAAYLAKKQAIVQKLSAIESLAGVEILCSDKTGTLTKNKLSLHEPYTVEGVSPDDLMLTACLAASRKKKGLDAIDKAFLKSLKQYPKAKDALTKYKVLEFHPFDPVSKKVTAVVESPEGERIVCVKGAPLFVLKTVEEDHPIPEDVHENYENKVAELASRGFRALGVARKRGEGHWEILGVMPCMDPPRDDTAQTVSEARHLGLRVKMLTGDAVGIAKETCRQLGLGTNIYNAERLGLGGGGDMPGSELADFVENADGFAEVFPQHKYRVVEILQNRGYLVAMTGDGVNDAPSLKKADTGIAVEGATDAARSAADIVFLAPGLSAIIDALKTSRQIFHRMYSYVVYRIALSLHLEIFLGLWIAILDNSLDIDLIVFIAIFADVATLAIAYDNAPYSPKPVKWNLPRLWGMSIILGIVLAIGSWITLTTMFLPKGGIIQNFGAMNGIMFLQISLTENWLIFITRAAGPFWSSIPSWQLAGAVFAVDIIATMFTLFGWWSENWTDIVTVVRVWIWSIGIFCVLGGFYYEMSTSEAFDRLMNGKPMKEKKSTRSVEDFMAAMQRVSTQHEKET

Structure (SMILES) | IC50 [1, 6] [µM] | MIC [2, 7] [µM] | MIC [3, 8] [µM] | MIC [4, 9] [µM] | IC50 [5] [µM] | IC50 [1, 10] [µM] | MIC [2, 11] [µM] | MIC [3, 12] [µM] | MIC [4, 13] [µM] | Selectivity toward Pma1 than toward SERCA or Na^+,K^+-ATPase ([1]; from IC50 of Table 2) | IC50 [5, 14] [µM] | also measured
CCCCOc1ccc(C2C(C#N)=C(N)Oc3cc(O)ccc32)cc1 (centres unmarked) [Compound 11] | 12.8 ± 5 | > 150 | > 150 | > 150 | 15.7 ± 2 | – | – | – | – | – | – | –
COc1ccc(Cn2c(SCc3cc(C)ccc3C)nc3cc(OC)c(OC)cc3c2=N)cc1 [Compound 12] | 15.5 ± 8.1 | > 150 | > 150 | > 150 | – | – | – | – | – | – | – | –
CCCCc1nc2sc3c(NCCCN(C)C)ncnc3c2c2c1CCCC2 [Compound 14] | 13.7 ± 2 | 75 (≈ 29.8 µg/mL) | 41 (≈ 16.3 µg/mL) | 24 (≈ 9.54 µg/mL) | 42 ± 8 | 13.7 ± 2 | 75 (≈ 29.8 µg/mL) | 41 (≈ 16.3 µg/mL) | 24 (≈ 9.54 µg/mL) | – | – | Selectivity for Pma1 over SERCA ([1]; from IC50 of Table 2): 3 fold
CCCCc1nc2sc3c(NCCCN(C)C)nc(SC)nc3c2c2c1CCC2 [Compound 15] | – | – | – | – | – | 5.9 ± 0.2 | 15 (≈ 6.44 µg/mL) | 15 (≈ 6.44 µg/mL) | 47 (≈ 20.2 µg/mL) | no selectivity | 4.5 | –
CN(C)CCCNc1ncnc2c1sc1nc(N3CCCCC3)c3c(c12)CCCC3 [Compound 16] | – | – | – | – | 11.1 | 7.8 ± 0.6 | 15 (≈ 6.37 µg/mL) | 11 (≈ 4.67 µg/mL) | 28 (≈ 11.9 µg/mL) | no selectivity | – | –
CCc1nc2sc3c(NCCCN(C)C)ncnc3c2c2c1CCCC2 [Compound 17] | – | – | – | – | > 333 | 107 ± 18.2 | > 150 | 150 (≈ 55.4 µg/mL) | 150 (≈ 55.4 µg/mL) | – | – | IC50 ([1]; ATP hydrolysis, S. cerevisiae Pma1, read-out: IC50 for Pma1): 107 µM
CN(C)CCCNc1ncnc2c1sc1nc(-c3ccccc3)c3c(c12)CCC3 [Compound 18] | – | – | – | – | 69.5 ± 6.9 | 18.5 ± 4.3 | 75 (≈ 30.3 µg/mL) | 41 (≈ 16.5 µg/mL) | 58 (≈ 23.4 µg/mL) | – | – | Selectivity for Pma1 over Na^+,K^+-ATPase ([1]; from IC50 of Table 2): 4 fold; Selectivity for Pma1 over SERCA ([1]; from IC50 of Table 2): 3 fold
CCN(CC)CCCNc1nc(SC)nc2c1sc1nc(-c3ccccc3)c3c(c12)CCC3 [Compound 19] | – | – | – | – | – | 7.3 ± 1 | 12 (≈ 5.73 µg/mL) | 3.7 (≈ 1.77 µg/mL) | 3.7 (≈ 1.77 µg/mL) | no selectivity | 4.4 ± 0.3 | –
O=c1c2ccccc2[se]n1-c1ccccc1 [Ebselen, reference compound] | – | – | – | – | – | – | 24 (≈ 6.58 µg/mL) | 7.5 (≈ 2.06 µg/mL) | 11 (≈ 3.02 µg/mL) | – | 0.12 | –
[O]=[V]([O-])([O-])[O-] [Vanadate, reference compound] | – | – | – | – | – | 0.25 ± 0.01 | – | – | – | – | 10.4 ± 2.4 | MIC for growth inhibition, A. fumigatus ([2]; Table 3): >750 µM; MIC for growth inhibition, C. glabrata ([3]; Table 3): >750 µM; MIC for growth inhibition, C. tropicalis ([4]; Table 3): >750 µM
